In PMC8062304 (Journal of the American Chemical Society, 2021):

Columns and labels:
carboxypeptidase Y = target: T1, carboxypeptidase Y (Saccharomyces cerevisiae, UniProt P00729); type: in vitro ADME; conditions: after 2 h at 95 °C; CFB-produced lasso peptide from native BGC; Figure S7
T1 sequence (P00729 112-532): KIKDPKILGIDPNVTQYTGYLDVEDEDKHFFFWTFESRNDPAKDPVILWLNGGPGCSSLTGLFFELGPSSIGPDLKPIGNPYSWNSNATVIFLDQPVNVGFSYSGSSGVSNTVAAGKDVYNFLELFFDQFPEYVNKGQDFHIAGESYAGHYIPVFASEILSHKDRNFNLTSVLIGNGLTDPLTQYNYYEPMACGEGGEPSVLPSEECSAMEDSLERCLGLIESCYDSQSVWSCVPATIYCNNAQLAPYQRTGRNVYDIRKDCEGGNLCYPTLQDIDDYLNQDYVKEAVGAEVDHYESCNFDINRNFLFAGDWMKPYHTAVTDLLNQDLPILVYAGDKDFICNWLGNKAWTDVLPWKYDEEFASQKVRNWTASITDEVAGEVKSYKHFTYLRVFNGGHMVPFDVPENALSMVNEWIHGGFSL

[1] = test system: transcription/translation (production of the fluorescent protein mCherry); type: biochemical, E. coli; conditions: CFB-produced capistruin supplied at 10 µM; compared to a control that omitted capistruin; fluorescence reporter
[2] = cited from earlier work

Question: Which “carboxypeptidase Y resistance after prolonged heating” value (shortened to “carboxypeptidase Y resistance”) (carboxypeptidase Y) does the source give for cellulassin here?
Answer: efficient carboxypeptidase Y digestion

Question: With “capistruin (GTPGFQTPDARVISRFGFN; Capistruin; UniProt P0DQM5 29-47, looked up)” as the substance, how does the “reduction in mCherry production” value [1] read?
Answer: 66%

Question: With burhizin as the substance, how does the “carboxypeptidase Y resistance” value (carboxypeptidase Y) read?
Answer: retained protease resistance

Question: For fusilassin, which “conformation after extended exposure to organic solvent” value [2] is on record?
Answer: adopted a branched-cyclic form

Question: What about the “carboxypeptidase Y resistance” value (carboxypeptidase Y) of the same substance?
Answer: efficient carboxypeptidase Y digestion
